pKd: −log10 of the molar value.

Data set [1] is described as follows: Fatigue resistance under alternated UV/vis irradiation cycles. Format: physicochemical. The conditions noted are these: alternated UV (370 nm) and visible irradiation cycles, aqueous media. The source says:
Figure 2 (Left) Absorption spectra and (right) fatigue resistance of 1 under alternated 370/485 nm irradiations in Tris buffer/DMSO 95:5 at rt: E-1 (black line), PSS370 (blue line), PSS485 (red line). Irradiation conditions at 370 nm: 12.8 mW·cm^−2, 20 s; at 485 nm: 1.5 mW·cm^−2, 480 s.
General procedure for the fatigue resistance measurements
Starting from a solution of compound containing 100% of the E-isomer, the solution was irradiated sequentially at 370 nm and at 485 nm or 438 nm. The absorbance was measured before and after each illumination realized with constant optical length distance. The sequence, which constitutes a cycle, was repeated for a minimum of 10 times.
Fatigue resistance of the compound 2
Figure S15: Left: absorption spectra of E-2 (black line), PSS370 (blue line), PSS438 (red line) in Tris buffer/ DMSO (9/1); Right: Fatigue resistance followed by the absorption band at 3 21 nm under alternate 3 70 nm/438 nm irradiation cycles in Tris buffer/DMSO (9/1). Irradiation conditions: 40 s at P 370 = 14.1 mW cm-2 and 180 s at P 438 […]
Fatigue resistance of the compound 3
Figure S16: Left: absorption spectra of E-3 (black line), PSS 370 (blue line), PSS 485 (red line) in Tris buffer/DMSO (9/1); Right: Fatigue resistance followed by the absorption band at 3 64 nm under alternate 3 70 nm/485 nm irradiation cycles in Tris buffer/DMSO (9/1). […]

The target of data set [2] is T1, LecA (Pseudomonas aeruginosa, UniProt Q05097).
T1 construct: LecA was expressed and purified as previously described; made in house
The data set can be described thus: Isothermal titration calorimetry (ITC) of ligand binding to LecA. The conditions noted are these: ITC Kd, E-isomer the better binder. An excerpt: The interaction of compounds 1–5 with LecA was characterized by ITC analysis for both the E- and Z-isomers. As the initial isomer state of the galactosyl azobenzenes is the E-form, ITC measurements made on E-isomers correspond to 100% purity of them. After 370 nm irradiation to induce the photoizomerisation process, a photostationary state is reached between E- and Z-isomers. For ITC measurements made on Z-isomers, the percentage of isomers is shown in the column Z/E (PSS370) of Table 1. Depending on the corresponding galactosyl azobenzenes, the Z-isomer is pure from 87 to 99%. Spectroscopy measurements were performed on ligand solution just before each experiment to check the efficiency of the isomerization, with results as indicated in Table 2.
Isothermal titration calorimetry: LecA was expressed and purified as previously described. All experiments were performed at 25 °C with an ITC200 isothermal titration calorimeter (Microcal-Malvern Panalytical, Grenoble, France). The lyophilized LecA protein was dissolved in a buffer composed of 20 mM Tris^.HCl (pH 7.5), 100 mM NaCl and 100 μM CaCl2 with 5% or 10% DMSO final. All compounds were first dissolved in DMSO then in same buffer for a final concentration of 5% or 10% DMSO. […]
A general note: ITC needs no label: the signal is the heat of the interaction.

A short description of data set [3]: Photostationary state composition (E/Z ratios) by 1H NMR and UV–vis after irradiation. The data set is classed as physicochemical. As to conditions: for Z/E PSS370: after 370 nm irradiation; for E/Z PSS485: after 485 nm irradiation; for E-isomer mixed with the Z-isomer as established by PSS370: Z-isomer samples used for ITC. Here is the method:
General experimental details. Commercially available solvents and reagents were used without further purification. Reactions carried out under anhydrous conditions are performed under argon in glassware previously dried in an oven. DMF and THF were previously dried through alumina or molecular sieves-containing cartridges using a solvent purificator MBRAUN SPS-800. All the reactions with azobenzene-containing substrates were carried out in the dark. Reactions were monitored by TLC on Silica Gel 60F-254 plates with detection by UV (254 nm or 365 nm) or by spraying with 10% H2SO4 in EtOH and heating about 30 s at 400–600 °C. Column chromatography purification was performed on CombiFlash® Rf+ and RediSep® RF or RF Gold normal phase silica columns (with UV detection at 254 and 350 nm for all azobenzene derivatives), or by flash column chromatography employing silica gel (60 Å pore size, 40–63 µm). ^1H and ^13C NMR spectra were recorded on a JEOL ECS-400 spectrometer or on Bruker Avance 300 and 400 spectrometers. Structural assignments were made with additional information from gCOSY, HMBC, and gHMQC experiments. High-resolution mass spectra (HRMS) were performed on a Bruker maXis mass spectrometer by the SALSA platform from ICOA laboratory or on an Agilent 1260 Infinity system with a quadrupole time-of-light (Q-TOF) mass analyzer. Melting points were measured with a Köfler bench previously calibrated using the usual standard references or on a digital melting point capillary apparatus. Specific optical rotations were measured in solution using sodium light at 589 nm where no absorption occurred for all compounds. Absorption spectra were recorded on a Cary-5000 spectrophotometer from Agilent Technologies. Photochromic reactions were induced in situ by a continuous irradiation Hg/Xe lamp (Hamamatsu, LC6- or LC8-Lightningcure, 200 W) equipped with narrow band interference filters of appropriate wavelengths: Semrock BP-370/36 for λirr = 370 nm, Semrock FF01-438/24-25 for λirr = 438 nm, Semrock FF01-485/20-25 for λirr = 485 nm. The irradiation power was measured using a photodiode from Ophir (PD300-UV) and corrected after a measurement with an additional Schott long pass filter (LP-545) to measure NIR contribution (PLP) that is let through the Semrock filter (PTotal), considering a 90% transmittance: Pλirr = PTotal − (10/9 × PLP). The photoconversion reaction was followed by a combination of ^1H NMR and UV–vis absorption spectra, realized by successive irradiations at 370 nm (438 or 485 nm). The E/Z ratios were determined by integration of the azobenzene proton signals of each isomer. A quartz cell of 10 mm path length has been used for solution measurement.
The photoconversion yields were measured from a solution of the compounds in deuterated solvent and monitored by ^1H NMR and UV–vis absorption, after successive irradiations at 370 nm (438 nm or 485 nm) in the case of the PSS. The E/Z ratios were determined by integration of characteristic of each isomer.

Data set [4] is described as follows: Thermal Z→E isomerization tracked by UV–vis absorption (half-life of Z-isomers). Format: physicochemical. The conditions noted are these: Tris buffer with 5% DMSO, pH 7.5, solvent not given; read-out: t1/2 (thermostability of Z-isomer) (converted). The source says: The photoswitching properties of galactosyl azobenzenes 1–5 were realized in water or in Tris buffer containing 5 to 10% DMSO, in accordance with the biophysical evaluation conditions by using ITC. All these compounds undergo reversible photoisomerization under UV–vis irradiation in aqueous solution. […] After irradiation at 370 nm to induce the E-to-Z photoisomerization, the band at 353 nm decreases concomitantly to the appearance of two new bands at 312 and 438 nm (Figure 2, blue line). Two isosbestic points can also be observed at 310 and 429 nm. The back Z→E photoisomerization can be achieved by illumination at 485 nm (Figure 2, red line). ^1H NMR spectroscopy has been used to determine the Z/E ratios during irradiation, showing an excellent photoconversion yield of Z/E = 99:1 at PSS370, and E/Z = 87:13 at PSS485 in D2O/5% DMSO (Figure 3). […] All the photophysical properties of compounds 1–5 are summarized in Table 1 (spectra are shown in Figure S1–S24 in Supporting Information File 1). Concerning the meta-substituted azobenzene 2, a 30 nm blue shift is observed for the π→π* transition (λmax = 321 nm) as well as a lower absorption coefficient compared to the para-derivative 1 (Table 1, entries 3 and 4 vs entries 1 and 2), probably due to less-conjugated azobenzene. […]
The half-lif e o f Z -1 at roo m temperatur e wa s the n calculated: […]

Data set [5] has as its target T1, LecA. As to conditions: ref [5]–[8][32]; cited from earlier work.

T1 sequence (Q05097 whole entry): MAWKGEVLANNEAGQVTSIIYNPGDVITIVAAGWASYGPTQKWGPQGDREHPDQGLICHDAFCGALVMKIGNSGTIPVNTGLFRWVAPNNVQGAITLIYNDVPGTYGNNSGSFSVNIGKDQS

As to `NCCOc1ccc(/N=N/c2ccc(O[C@@H]3O[C@H](CO)[C@H](O)[C@H](O)[C@H]3O)cc2)cc1` [compound 1], the fatigue resistance result in data set [1] is given as “no degradation has been observed after more than 10 UV–vis irradiation cycles”. Further, the “difference in affinity between E- and Z-isomers” value on LecA [2] turned out to be 3 fold. Besides, the “Z/E PSS370” value in data set [3] (H2O) and in data set [3] (Tris/DMSO 5%) was 99/1 in each case. Also, the “E/Z PSS485” value in data set [3] (H2O) and in data set [3] (Tris/DMSO 5%) was 87/13 in each case.

For the compound `NCCOc1cccc(/N=N/c2cccc(O[C@@H]3O[C@H](CO)[C@H](O)[C@H](O)[C@H]3O)c2)c1` [compound 2], the half-life in data set [4] was 29 days. The “Z/E PSS370” value in data set [3] (Tris/DMSO 5%) and in data set [3] (Tris/DMSO 10%) was 87/13 throughout. The “E/Z PSS485” value in data set [3] (Tris/DMSO 5%) was 71/29. The “E/Z PSS438” value in data set [3] (Tris/DMSO 10%, after 438 nm irradiation (footnote d)) is listed as 74/26^d. Besides, the “E-isomer mixed with the Z-isomer as established by PSS370” value in data set [3] worked out at 13%.

Regarding `NCCOc1ccc(/N=N/c2ccc(S[C@@H]3O[C@H](CO)[C@H](O)[C@H](O)[C@H]3O)cc2)cc1` [compound 3], the “difference in affinity between E- and Z-isomers” value on LecA [2] is on record as 2 fold. Moreover, in data set [3] (H2O), the “Z/E PSS370” value is recorded as 99/1 and the “E/Z PSS485” value is reported as 73/27. In addition, in data set [3] (Tris/DMSO 10%), the “Z/E PSS370” value was 99/1 and the “E/Z PSS485” value was 71/29.

`NCCOc1ccc(/N=N/c2cccc(S[C@@H]3O[C@H](CO)[C@H](O)[C@H](O)[C@H]3O)c2)cc1` [compound 4]: in data set [3] (Tris/DMSO 10%), the “Z/E PSS370” value is recorded as 99/1 and the “E/Z PSS485” value is 72/28.

For `NCCOc1ccc(/N=N/c2ccccc2S[C@@H]2O[C@H](CO)[C@H](O)[C@H](O)[C@H]2O)cc1` [compound 5], in data set [3] (Tris/DMSO 10%), the “Z/E PSS370” value is given as 92/8 and the “E/Z PSS485” value was 60/40. For the same compound, in data set [3], the “E-isomer mixed with the Z-isomer as established by PSS370” value was 8%.

As to `O=C[C@H](O)[C@@H](O)[C@@H](O)[C@H](O)CO` [ᴅ-galactose], the negative-log Kd (pKd) on LecA [5] was 4.47.

A word on the pKd: it is −log10 of the Kd, conventionally taken in molar units.

(Values after PMC11228623, “Photoswitchable glycoligands targeting Pseudomonas aeruginosa LecA” (Beilstein Journal of Organic Chemistry, 2024).)
